Test results: patent EP0382185A2, “Carbostyril derivatives” (OTSUKA PHARMACEUTICAL CO., LTD., priority 1989, dated 1990)

System: increase of diastolic pressure caused by the intravenous administration of Arg-vasopressin
Assay: Anti-vasopressor activity in vivo
Design: species or system male SD rat
Conditions: 0.05 h; pith rat; test compound intravenous; Arg-vasopressin (30 mU/kg) intravenously 3 minutes after the test compound; dose reducing the increase of diastolic pressure to 50 % of control

Question: With `COc1ccc(C(=O)N2CCC(N3C(=O)CCc4ccc(F)cc43)CC2)c(OC)c1` [Example 311, 7-Fluoro-1-[1-(2,4-dimethoxybenzoyl)-4-piperidinyl]-3,4-dihydrocarbostyril] as the compound, how does the ED50 read?
Answer: The ED50 was 0.3 mg/kg.
